Data from patent US5770604A, “Aconitine compound and an antipyretic/analgesic/anti-inflammatory agent” (priority 1994, dated 1998).

Legend:
[1] = tested on: nociceptive response (licking); assay: Analgesic activity by the hot-plate method; type: in vivo, mice (Std:ddY, male); settings: mouse, 52° C. plate, solution 10 mg/10 ml, mean ± standard error
Method: Measurement of Analgesic Activity by the Hot-Plate Method
Std:ddY Strain male mice (20-25 g) were fasted for one day before the experiment, and were used. After compounds shown in Table 1 were formed to the tartaric acid salts, these compounds were dissolved in 0.9% physiologocal saline solution at the rate of 10 mg/10 ml, respectively and these solution were used as test compound solution. In a control, 0.9% physiological saline solution was used. Mice were placed on a cyrindric hot plate (diameter: 22 cm, height: 11 cm) made of copper which was fixed in a water bath adjusted to 52° C. so that each animal's four paws came into contact with the plate and the time taken to show the nociceptive response (licking) as an index of pain was measured. Mice showing response latency above 25 seconds were excluded from the experiment. To prevent a burn damage of mouse tissue by heating, cutoff time of 50 seconds was defined. The results were described as an inhibition rate (%) obtained from the following equation.
Inhibition rate (%)=(A-B)×100/(50-B)
A: Response latency (seconds) after the administration of test compound solution
B: Response latency (seconds) before the administration of test compound solution

[2] = tested on: pain threshold (tail-pressure); assay: Analgesic activity by the tail-pressure method (s.c.); type: in vivo, mice (Std:ddY, male); settings: mouse, 10 mg/10 ml at 10 ml/kg s.c., 1 hour after administration, mean ± standard error
Method: (1) Measurement of Analgesic Activity by the Tail-Pressure Method
Std:ddY Strain male mice (20-25 g) were fasted for one day before the experiment, and were used. After test compounds shown in Table 1 was formed to a salt with tartaric acid, this salt was dissolved in 0.9% physiological saline solutions at the rate of 10 mg/10 ml to give the test compoun d solution . As a control, 0.9% physiological saline solution was used. A tail-pressure apparatus was used in this experiments. Before the administration of test compounds, the pain threshold was measured twice at intervals of 30 minutes and those mice indicating a pain threshold of 50 to 100 mmHg were selected and used. The pain threshold of each mouse was measured at 1 hour after test compound solution mentioned above was administered at 10 ml/kg, s.c. 0.9% Physiological saline solution as a control was administered at 10 ml/kg, s.c . The results were described as an inhibition rate (%) obtained from the following equation. Cutoff level of pressure was defined to be 230 mmHg for the prevention of the damage of mouse tail.
Inhibition rate (%)=(A-B)×100/(C-B)
A: Pain threshold (mmHg) after the administration of test compound solution
B: Pain threshold (mmHg) before the administration of test compound solution
C: Cutoff pressure (230 mmHg)

[3] = cited from earlier work; for analgesic activity, in words: compared to morphine
[4] = tested on: carrageenin-induced paw edema; assay: Antiinflammatory activity by the carrageenin-induced hind paw edema; type: in vivo, mice (Std:ddY, male); settings: mouse, 30 mg/kg p.o., mean ± standard error, n = 6
Method: Measurement of Antiinflammatory Activity by the Carrageenin-Induced Hind Paw Edema
Std:ddY Strain male mice (20-25 g) were fasted for one day before the experiment, and were used. After test compounds shown in Table 1 was formed to a salt with tartaric acid, this salt was dissolved in sterilized and distilled water at the rate of 30 mg/10 ml to give the test compound solution. As a control, sterilized and distilled water was used. One hour after the oral administration of test compound solutions, 25 μl of λ-carrageenin suspended in 0.9% physiological saline solution (0.5 mg/25 μl) was injected s.c. under the plantar surface of the right hind paw of a mouse and 25 μl of 0.9% physiological saline solution was injected s.c. under the plantar surface of the left hind paw of the same mouse. Three hours and five hours after carrageenin injection, the […] of the paw was measured with a dial gauge calliper. To the control group, One hour after the oral administration of sterilized and distilled water at the rate of 10 ml/kg, 25 μl of λ-carrageenin (0.5 mg/25 μl) suspended in 0.9% physiological saline solution was injected s.c. under the plantar surface of the right hind paw of a mouse and 25 μl of 0.9% physiological saline solution was injected s.c. under the plantar surface of the left hind paw of the same mouse and the later operation was done in the same manner as in the test compound dosing group mentioned above. The results were described as a swelling rate (%) obtained from the following equation.
Swelling rate (%)=(R-L)×100/L
R: the thickness of the right hind paw
L: the thickness of the left hind paw

[5] = tested on: yeast-induced fever; assay: Antipyretic activity on yeast-induced fever in rats; type: in vivo, rats (Wistar, male); settings: rat, 2 hours after administration
Method: Measurement of Antipyretic Activity on Yeast-Induced Fever in Rats
Wistar Strain male rats (150-190 g) were fasted for one day before the experiment, and were used. Compounds of number (1) and (2) in Table 1 were formed to the tartaric acid salt and these salts were dissolved in 0.9% physiological saline solution at the rate of 10 mg/10 ml and these solution were used as test compound solution. In a control, 0.9% physiological saline solution was used. After rat rectal temperature was measured, 1 ml/100 g of body weight of 7.5% yeast/0.9% physiological saline solution was injected s.c. at dorsal position. Then, rat rectal temperature was measured at 4 hour after the injection of yeast and rats showing the increase rectal temperature by 1 degree or more were selected and used. Test compound solution was administered s.c. at 5 hours after the injection of yeast. The rectal temperature was measured 2 hours after the administration of test compound solution. The results were described with the difference between the rectal temperature before and after the administration of test compound solution.

| Compound | Inhibition rate (hot-plate method) [1] [%] | Inhibition rate (tail-pressure method) [2] [%] | analgesic/anti-inflammatory activity relative to earlier compounds, in words ([3]; JP, A, H5-17448) | Swelling rate ([4]; 3 hour) [%] | Swelling rate ([4]; 5 hour) [%] | Change of rectal temperature ([5]; 1 mg/kg s.c.) [°C] | Change of rectal temperature ([5]; 3 mg/kg s.c.) [°C] | Change of rectal temperature ([5]; 10 mg/kg s.c.) [°C] | analgesic activity, in words [3] | activity in tail pressure methods and hot plate methods, in words [3] |
| --- | --- | --- | --- | --- | --- | --- | --- | --- | --- | --- |
| CCN1CC2(COC)C(O)CC(OC)C34C5CC6(O)C(OC)C(O)C(O)(C5C6OC(=O)c5ccc(Cl)cc5)C(C(OC)C23)C14 (stereo not drawn) [14-O-p-chlorobenzoylaconine, reference compound] | 17 ± 7 | 10 ± 4 | exhibits activity superior to that of compounds having a p-chlorobenzoyloxy group bonded to the position 14 carbon atom of the aconitine chemical structure | 57 ± 8 | 63 ± 9 |  |  |  |  |  |
| COCC12CN(C)C3C4C(OC)C1C3(C(OC)CC2O)C1CC2(O)C(OC)C(OC(C)=O)C4(O)C1C2OC(=O)c1ccc(Cl)cc1 (stereo not drawn) [(1), 15-O-acetyl-14-O-p-chlorobenzoylmesaconine] | 52 ± 12 | 48 ± 12 |  | 49 ± 2 | 52 ± 6 | 1.3 ± 0.1 | 0.2 ± 0.1 | 0.2 ± 0.2 |  |  |
| CCCN1CC2(COC)C(O)CC(OC)C34C5CC6(O)C(OC)C(OC(C)=O)C(O)(C5C6OC(=O)c5ccc(Cl)cc5)C(C(OC)C23)C14 (stereo not drawn) [(3), de-N-ethyl-N-propyl-15-O-acetyl-14-O-p-chlorobenzoylaconine] | 39 ± 11 | 36 ± 10 |  | 42 ± 10 | 54 ± 8 |  |  |  |  |  |
| CCN1CC2(COC)C(OC(C)=O)CC(OC)C34C5CC6(O)C(OC)C(OC(C)=O)C(O)(C5C6OC(=O)c5ccc(Cl)cc5)C(C(OC)C23)C14 (stereo not drawn) [(4), 3,15-di-O-acetyl-14-O-p-chlorobenzoylaconine] | 35 ± 9 | 29 ± 8 |  | 50 ± 7 | 55 ± 9 |  |  |  |  |  |
| COCC12CN(C)C3C4C(OC)C1C3(C(OC)CC2OC(C)=O)C1CC2(O)C(OC)C(OC(C)=O)C4(O)C1C2OC(=O)c1ccc(Cl)cc1 (stereo not drawn) [(5), 3,15-di-O-acetyl-14-O-p-chlorobenzoylmesaconine] | 37 ± 10 | 40 ± 10 |  | 43 ± 10 | 58 ± 10 |  |  |  |  |  |
| COCC12CCC(OC)C34C5CC6(O)C(OC)C(OC(C)=O)C(O)(C5C6OC(=O)c5ccc(Cl)cc5)C(C(OC)C13)C4N(C)C2 (stereo not drawn) [(6), 15-O-acetyl-14-O-p-chlorobenzoylhypaconine] | 46 ± 8 | 27 ± 11 |  | 46 ± 5 | 60 ± 5 |  |  |  |  |  |
| CC(=O)Oc1ccccc1C(=O)O [aspirin] |  |  |  |  |  |  |  |  | weak analgesic activity compared to morphine | no remarkable activity in tail pressure methods and hot plate methods |
| COc1ccc2c(c1)c(CC(=O)O)c(C)n2C(=O)c1ccc(Cl)cc1 [indomethacin] |  |  |  |  |  |  |  |  | weak analgesic activity compared to morphine | no remarkable activity in tail pressure methods and hot plate methods |
| de-N-ethyl-N-propyl-15-O-acetyl-8-deoxy-16-epi-14-O-p-chlorobenzoylaconine [(11)] | 34 ± 9 | 25 ± 8 |  | 50 ± 5 | 52 ± 9 |  |  |  |  |  |
